Experimental data: patent US10807992B2, “Single enantiomer antiparasitic compounds” (priority 2017, dated 2020)
Where two headings read alike, the source gives them in different places.

System: Aedes aegypti
Experiment: In vitro contact activity against adult mosquitoes (coated vial)
Procedure: Aedes aegypti (Louisiana Biologicals Inc., New Orleans, La.) eggs were allowed to hatch, close, and age between 3-5 days in an environmental chamber at 26° C., 80% humidity with light/dark cycles.
For mosquito assays, an aliquot from each compound stock was added to an acetone/triton solution to achieve the desired top doses for the study. Serial dilutions were conducted from the top dose (i.e. 50 ppm) to achieve the desired titration range for EC50 and EC90 determination. The final DMSO concentration in each test vial was 0.5%. A 459 μL aliquot of each compound formulation was transferred to a vial and vials were immediately placed on an unheated roller unit to allow for an even coating of the vial walls. The vials were loosely capped and allowed to dry for a minimum of four hours in a chemical fume hood.
For both contact and ingestion assays, five female Aedes aegypti adults were added to each vial or cage. The test vials for contact assays were held in an environmental chamber at 24° C., 80% humidity with light/dark cycles (12 hours each). The cages for mosquito ingestion assays were held in a temperature-controlled artificial feeding apparatus to allow continual access to organic bovine blood containing the desired concentration of compound. Fresh aliquots of compound-spiked bovine blood were provided daily for the duration of the study.
Mosquitoes showing no movement or mosquitoes that were knocked down were noted as dead. Results from trial 1 and trial 2 contact assays are shown in Tables 12 and 13, respectively and the results from trial 3 mosquito ingestion assay is shown in table 14.
For the mosquito contact and ingestion assays, each replicate contained 5 mosquitoes. For ease of calculation, the two replicates were added to equal a total of 10 mosquitoes.

With `O=C(CC(F)(F)F)N1CC2(C1)OCc1cc(C3=NSC(c4cc(Cl)c(F)c(Cl)c4)(C(F)(F)F)C3)ccc12` (racemic) [C1 racemate, 1-[6-[5-(3,5-dichloro-4-fluoro-phenyl)-5-(trifluoromethyl)-4H-isothiazol-3-yl]spiro[1H-isobenzofuran-3,3′-azetidine]-1′-yl]-3,3,3-trifluoro-propan-1-one] the mortality at 0.049 µM (0.5 h, read-out: % Mortality R1 + R2, Trial 1, contact assay, dose 0.049 μM, 0.5 Hr) was 0%, the mortality at 0.2 µM (0.5 h, read-out: % Mortality R1 + R2, Trial 1, contact assay, dose 0.20 μM, 0.5 Hr) was 0% and the mortality at 0.78 µM (0.5 h, read-out: % Mortality R1 + R2, Trial 1, contact assay, dose 0.78 μM, 0.5 Hr) was 0%. It also gave a mortality at 3.125 µM (0.5 h, read-out: % Mortality R1 + R2, Trial 1, contact assay, dose 3.125 μM, 0.5 Hr) of 0%, a mortality at 12.5 µM (0.5 h, read-out: % Mortality R1 + R2, Trial 1, contact assay, dose 12.5 μM, 0.5 Hr) of 0% and a mortality at 50 µM (0.5 h, read-out: % Mortality R1 + R2, Trial 1, contact assay, dose 50 μM, 0.5 Hr) of 0%. The mortality at 0.049 µM (0.5 h, read-out: % Mortality R1 + R2, Trial 2, contact assay, dose 0.049 μM, 0.5 Hr) was 0%, the mortality at 0.2 µM (0.5 h, read-out: % Mortality R1 + R2, Trial 2, contact assay, dose 0.20 μM, 0.5 Hr) was 0% and the mortality at 0.78 µM (0.5 h, read-out: % Mortality R1 + R2, Trial 2, contact assay, dose 0.78 μM, 0.5 Hr) was 0%. The mortality at 3.125 µM (0.5 h, read-out: % Mortality R1 + R2, Trial 2, contact assay, dose 3.125 μM, 0.5 Hr) was 0%, the mortality at 12.5 µM (0.5 h, read-out: % Mortality R1 + R2, Trial 2, contact assay, dose 12.5 μM, 0.5 Hr) was 0% and the mortality at 50 µM (0.5 h, read-out: % Mortality R1 + R2, Trial 2, contact assay, dose 50 μM, 0.5 Hr) was 0%. It also gave a mortality at 0.049 µM (1 h, read-out: % Mortality R1 + R2, Trial 1, contact assay, dose 0.049 μM, 1 hr) of 0%, a mortality at 0.2 µM (1 h, read-out: % Mortality R1 + R2, Trial 1, contact assay, dose 0.20 μM, 1 hr) of 0% and a mortality at 0.78 µM (1 h, read-out: % Mortality R1 + R2, Trial 1, contact assay, dose 0.78 μM, 1 hr) of 0%. The mortality at 3.125 µM (1 h, read-out: % Mortality R1 + R2, Trial 1, contact assay, dose 3.125 μM, 1 hr) was 0%, the mortality at 12.5 µM (1 h, read-out: % Mortality R1 + R2, Trial 1, contact assay, dose 12.5 μM, 1 hr) was 0% and the mortality at 50 µM (1 h, read-out: % Mortality R1 + R2, Trial 1, contact assay, dose 50 μM, 1 hr) was 0%. It also gave a mortality at 0.049 µM (1 h, read-out: % Mortality R1 + R2, Trial 2, contact assay, dose 0.049 μM, 1 hr) of 0%, a mortality at 0.2 µM (1 h, read-out: % Mortality R1 + R2, Trial 2, contact assay, dose 0.20 μM, 1 hr) of 0% and a mortality at 0.78 µM (1 h, read-out: % Mortality R1 + R2, Trial 2, contact assay, dose 0.78 μM, 1 hr) of 0%. For the same molecule, the mortality at 3.125 µM (1 h, read-out: % Mortality R1 + R2, Trial 2, contact assay, dose 3.125 μM, 1 hr) was 0%, the mortality at 12.5 µM (1 h, read-out: % Mortality R1 + R2, Trial 2, contact assay, dose 12.5 μM, 1 hr) was 0% and the mortality at 50 µM (1 h, read-out: % Mortality R1 + R2, Trial 2, contact assay, dose 50 μM, 1 hr) was 0%. It also gave a mortality at 0.049 µM (6 h, read-out: % Mortality R1 + R2, Trial 1, contact assay, dose 0.049 μM, 6 hr) of 0%, a mortality at 0.2 µM (6 h, read-out: % Mortality R1 + R2, Trial 1, contact assay, dose 0.20 μM, 6 hr) of 0% and a mortality at 0.78 µM (6 h, read-out: % Mortality R1 + R2, Trial 1, contact assay, dose 0.78 μM, 6 hr) of 0%. It also gave a mortality at 3.125 µM (6 h, read-out: % Mortality R1 + R2, Trial 1, contact assay, dose 3.125 μM, 6 hr) of 0%, a mortality at 12.5 µM (6 h, read-out: % Mortality R1 + R2, Trial 1, contact assay, dose 12.5 μM, 6 hr) of 0% and a mortality at 50 µM (6 h, read-out: % Mortality R1 + R2, Trial 1, contact assay, dose 50 μM, 6 hr) of 80%. It also gave a mortality at 0.049 µM (6 h, read-out: % Mortality R1 + R2, Trial 2, contact assay, dose 0.049 μM, 6 hr) of 0%, a mortality at 0.2 µM (6 h, read-out: % Mortality R1 + R2, Trial 2, contact assay, dose 0.20 μM, 6 hr) of 0% and a mortality at 0.78 µM (6 h, read-out: % Mortality R1 + R2, Trial 2, contact assay, dose 0.78 μM, 6 hr) of 0%. The mortality at 3.125 µM (6 h, read-out: % Mortality R1 + R2, Trial 2, contact assay, dose 3.125 μM, 6 hr) was 0%, the mortality at 12.5 µM (6 h, read-out: % Mortality R1 + R2, Trial 2, contact assay, dose 12.5 μM, 6 hr) was 10% and the mortality at 50 µM (6 h, read-out: % Mortality R1 + R2, Trial 2, contact assay, dose 50 μM, 6 hr) was 100%. For the same molecule, the mortality at 0.049 µM (12 h, read-out: % Mortality R1 + R2, Trial 1, contact assay, dose 0.049 μM, 12 hr) was 0%, the mortality at 0.2 µM (12 h, read-out: % Mortality R1 + R2, Trial 1, contact assay, dose 0.20 μM, 12 hr) was 0% and the mortality at 0.78 µM (12 h, read-out: % Mortality R1 + R2, Trial 1, contact assay, dose 0.78 μM, 12 hr) was 0%. The mortality at 3.125 µM (12 h, read-out: % Mortality R1 + R2, Trial 1, contact assay, dose 3.125 μM, 12 hr) was 0%, the mortality at 12.5 µM (12 h, read-out: % Mortality R1 + R2, Trial 1, contact assay, dose 12.5 μM, 12 hr) was 0% and the mortality at 50 µM (12 h, read-out: % Mortality R1 + R2, Trial 1, contact assay, dose 50 μM, 12 hr) was 100%. The mortality at 0.049 µM (12 h, read-out: % Mortality R1 + R2, Trial 2, contact assay, dose 0.049 μM, 12 hr) was 0%, the mortality at 0.2 µM (12 h, read-out: % Mortality R1 + R2, Trial 2, contact assay, dose 0.20 μM, 12 hr) was 0% and the mortality at 0.78 µM (12 h, read-out: % Mortality R1 + R2, Trial 2, contact assay, dose 0.78 μM, 12 hr) was 0%. The mortality at 3.125 µM (12 h, read-out: % Mortality R1 + R2, Trial 2, contact assay, dose 3.125 μM, 12 hr) was 0%, the mortality at 12.5 µM (12 h, read-out: % Mortality R1 + R2, Trial 2, contact assay, dose 12.5 μM, 12 hr) was 80% and the mortality at 50 µM (12 h, read-out: % Mortality R1 + R2, Trial 2, contact assay, dose 50 μM, 12 hr) was 100%. For the same molecule, the mortality at 0.049 µM (24 h, read-out: % Mortality R1 + R2, Trial 1, contact assay, dose 0.049 μM, 24 hr) was 0%, the mortality at 0.2 µM (24 h, read-out: % Mortality R1 + R2, Trial 1, contact assay, dose 0.20 μM, 24 hr) was 0% and the mortality at 0.78 µM (24 h, read-out: % Mortality R1 + R2, Trial 1, contact assay, dose 0.78 μM, 24 hr) was 0%. It also gave a mortality at 3.125 µM (24 h, read-out: % Mortality R1 + R2, Trial 1, contact assay, dose 3.125 μM, 24 hr) of 0%, a mortality at 12.5 µM (24 h, read-out: % Mortality R1 + R2, Trial 1, contact assay, dose 12.5 μM, 24 hr) of 90% and a mortality at 50 µM (24 h, read-out: % Mortality R1 + R2, Trial 1, contact assay, dose 50 μM, 24 hr) of 100%. It also gave a mortality at 0.049 µM (24 h, read-out: % Mortality R1 + R2, Trial 2, contact assay, dose 0.049 μM, 24 hr) of 0%, a mortality at 0.2 µM (24 h, read-out: % Mortality R1 + R2, Trial 2, contact assay, dose 0.20 μM, 24 hr) of 0% and a mortality at 0.78 µM (24 h, read-out: % Mortality R1 + R2, Trial 2, contact assay, dose 0.78 μM, 24 hr) of 0%. It also gave a mortality at 3.125 µM (24 h, read-out: % Mortality R1 + R2, Trial 2, contact assay, dose 3.125 μM, 24 hr) of 70%, a mortality at 12.5 µM (24 h, read-out: % Mortality R1 + R2, Trial 2, contact assay, dose 12.5 μM, 24 hr) of 100% and a mortality at 50 µM (24 h, read-out: % Mortality R1 + R2, Trial 2, contact assay, dose 50 μM, 24 hr) of 100%. It also gave a mortality at 0.049 µM (48 h, read-out: % Mortality R1 + R2, Trial 1, contact assay, dose 0.049 μM, 48 hr) of 40%, a mortality at 0.2 µM (48 h, read-out: % Mortality R1 + R2, Trial 1, contact assay, dose 0.20 μM, 48 hr) of 20% and a mortality at 0.78 µM (48 h, read-out: % Mortality R1 + R2, Trial 1, contact assay, dose 0.78 μM, 48 hr) of 30%. For the same molecule, the mortality at 3.125 µM (48 h, read-out: % Mortality R1 + R2, Trial 1, contact assay, dose 3.125 μM, 48 hr) was 90%, the mortality at 12.5 µM (48 h, read-out: % Mortality R1 + R2, Trial 1, contact assay, dose 12.5 μM, 48 hr) was 100% and the mortality at 50 µM (48 h, read-out: % Mortality R1 + R2, Trial 1, contact assay, dose 50 μM, 48 hr) was 100%. It also gave a mortality at 0.049 µM (48 h, read-out: % Mortality R1 + R2, Trial 2, contact assay, dose 0.049 μM, 48 hr) of 0%, a mortality at 0.2 µM (48 h, read-out: % Mortality R1 + R2, Trial 2, contact assay, dose 0.20 μM, 48 hr) of 40% and a mortality at 0.78 µM (48 h, read-out: % Mortality R1 + R2, Trial 2, contact assay, dose 0.78 μM, 48 hr) of 0%. It also gave a mortality at 3.125 µM (48 h, read-out: % Mortality R1 + R2, Trial 2, contact assay, dose 3.125 μM, 48 hr) of 100%, a mortality at 12.5 µM (48 h, read-out: % Mortality R1 + R2, Trial 2, contact assay, dose 12.5 μM, 48 hr) of 100% and a mortality at 50 µM (48 h, read-out: % Mortality R1 + R2, Trial 2, contact assay, dose 50 μM, 48 hr) of 100%.
